# Experimental data as given in ChEMBL document CHEMBL1201862, “PubChem BioAssay data set” (2004).
# Where “and” joins values, the source holds several entries; their conditions need not be identical. Identical values can stand only once. Calls of active or inactive are those of the source.
# Legend:
# BJ = experiment: cells; type: functional, cell-based; conditions: Homo sapiens
# [1] = target: Heat shock protein HSP 90-alpha (Homo sapiens, UniProt P07900); type: functional, organism-based
# Keap1/Nrf2 = Keap1/Nrf2 (Homo sapiens, UniProt Q14145); experiment: Keap1-Nrf2 protein-protein interaction inhibitors, dose response, biochemical, fluorescence polarization, cherry-picked samples (AID 588683)
# Cytochrome P450 2C19 = Cytochrome P450 2C19 (Homo sapiens, UniProt P33261); experiment: Cytochrome panel assay with activity outcomes. Panel member name: p450-cyp2c19 Compounds with AC50 equal or less than 10 uM are considered active; type: functional; conditions: read-out: AC50
# Estrogen receptor beta = Estrogen receptor beta (Homo sapiens, UniProt Q92731); experiment: ERβ–SRC-3 coactivator interaction inhibitors, confirmation, orthogonal assay, biochemical, ELISA, streptavidin-HRP readout (AID 1060)
# Vero = Vero cell cytotoxicity, cytotoxicity control for flavivirus capping enzyme inhibitors (AID 588742); type: functional; conditions: Chlorocebus sabaeus
# [2] = target: DNA (cytosine-5)-methyltransferase 1 (Homo sapiens, UniProt P26358); experiment: DNMT1 methyltransferase inhibitors, confirmation, biochemical, fluorescent molecular beacon (AID 602386); type: functional
# [3] = target: T1, Tyrosine-protein phosphatase non-receptor type 5 (Homo sapiens, UniProt P54829); experiment: STEP phosphatase inhibitors, confirmation, biochemical, fluorescence intensity, uHTS hits (AID 602372); type: functional; conditions: read-out: IC50_Mean
# T1 sequence (P54829 whole entry): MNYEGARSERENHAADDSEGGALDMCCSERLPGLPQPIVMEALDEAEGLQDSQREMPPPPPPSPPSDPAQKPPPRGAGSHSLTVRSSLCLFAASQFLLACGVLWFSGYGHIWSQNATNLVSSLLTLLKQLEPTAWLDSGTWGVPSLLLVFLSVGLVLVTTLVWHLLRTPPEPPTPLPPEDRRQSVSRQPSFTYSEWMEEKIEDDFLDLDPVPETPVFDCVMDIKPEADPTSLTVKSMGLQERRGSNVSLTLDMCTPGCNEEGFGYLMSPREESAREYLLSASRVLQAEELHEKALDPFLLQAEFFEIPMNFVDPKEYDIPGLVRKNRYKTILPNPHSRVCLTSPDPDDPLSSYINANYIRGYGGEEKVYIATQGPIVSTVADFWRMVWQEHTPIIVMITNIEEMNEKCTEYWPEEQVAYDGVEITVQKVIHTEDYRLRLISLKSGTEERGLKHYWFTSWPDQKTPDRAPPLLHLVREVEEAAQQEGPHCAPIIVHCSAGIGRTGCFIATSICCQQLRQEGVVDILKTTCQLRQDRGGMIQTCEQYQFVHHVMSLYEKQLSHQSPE
# [4] = target: T2, Tyrosine-protein phosphatase non-receptor type 22 (Homo sapiens, UniProt Q9Y2R2); experiment: SAR LYP1 Fluorescent Assay using OMFP substrate for In Vitro dose response studies - Set 3. [Related pubchem assays (depositor defined):AID1779, AID1784, AID2140, AID2686]; type: functional
# T2 sequence (Q9Y2R2 whole entry): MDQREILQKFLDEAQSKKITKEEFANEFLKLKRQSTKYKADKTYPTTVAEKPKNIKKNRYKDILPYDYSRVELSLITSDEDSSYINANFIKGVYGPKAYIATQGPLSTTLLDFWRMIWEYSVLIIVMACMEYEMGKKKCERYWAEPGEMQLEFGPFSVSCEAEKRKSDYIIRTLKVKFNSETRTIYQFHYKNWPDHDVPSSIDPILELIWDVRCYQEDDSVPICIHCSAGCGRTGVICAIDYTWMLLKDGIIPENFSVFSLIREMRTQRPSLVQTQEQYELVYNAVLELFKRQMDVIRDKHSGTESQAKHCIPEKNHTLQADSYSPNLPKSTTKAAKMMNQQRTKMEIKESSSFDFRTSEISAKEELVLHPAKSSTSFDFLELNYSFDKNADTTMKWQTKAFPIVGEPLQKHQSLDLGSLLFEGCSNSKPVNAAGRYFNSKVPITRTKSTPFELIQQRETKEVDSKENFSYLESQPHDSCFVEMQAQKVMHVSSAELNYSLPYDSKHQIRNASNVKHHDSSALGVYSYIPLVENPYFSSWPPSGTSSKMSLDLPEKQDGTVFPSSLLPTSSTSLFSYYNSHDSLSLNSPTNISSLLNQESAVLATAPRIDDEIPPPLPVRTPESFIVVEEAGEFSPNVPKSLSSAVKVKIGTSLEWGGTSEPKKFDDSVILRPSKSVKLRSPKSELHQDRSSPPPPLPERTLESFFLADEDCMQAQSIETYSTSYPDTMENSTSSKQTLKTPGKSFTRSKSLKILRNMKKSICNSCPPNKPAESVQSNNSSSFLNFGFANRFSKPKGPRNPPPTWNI
# [5] = target: T2, Tyrosine-protein phosphatase non-receptor type 22; experiment: SAR LYP1 Fluorescent Assay using OMFP substrate for In Vitro dose response studies - Set 2. [Related pubchem assays (depositor defined):AID1779, AID1784, AID2140, AID449726, AID488869]; type: functional
# [6] = target: T2, Tyrosine-protein phosphatase non-receptor type 22; experiment: PubChem AID 2140
# [7] = target: T3, Dual specificity protein phosphatase 6 (Rattus norvegicus, UniProt Q64346); experiment: MKP-3 phosphatase inhibitors, primary screen, biochemical, rat enzyme, in vitro (AID 425)
# T3 sequence (Q64346 whole entry): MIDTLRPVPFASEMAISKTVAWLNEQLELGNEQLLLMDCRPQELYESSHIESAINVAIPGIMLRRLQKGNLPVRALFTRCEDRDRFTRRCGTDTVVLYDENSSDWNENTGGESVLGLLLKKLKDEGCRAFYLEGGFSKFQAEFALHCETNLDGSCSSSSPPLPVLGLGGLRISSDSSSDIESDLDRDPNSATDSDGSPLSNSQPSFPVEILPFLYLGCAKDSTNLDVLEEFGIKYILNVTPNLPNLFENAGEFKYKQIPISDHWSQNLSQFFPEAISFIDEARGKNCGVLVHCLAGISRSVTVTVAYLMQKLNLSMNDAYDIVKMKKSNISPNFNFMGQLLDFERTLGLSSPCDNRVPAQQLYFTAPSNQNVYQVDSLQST
# [8] = target: Envelope glycoprotein gp160 (Human immunodeficiency virus 1, UniProt Q6QLK5); experiment: inhibitors of HIV fusion peptide binding, primary screen, biochemical, uHTS, fluorescence dequenching (AID 1986)
# [9] = target: T2, Tyrosine-protein phosphatase non-receptor type 22; experiment: SAR LYP1 Fluorescent Assay using pCAP substrate for In Vitro dose response studies - Set 2. [Related pubchem assays (depositor defined):AID1779, AID1784, AID2135, AID449727]; type: functional
# Protein Tat = target: T4, Protein Tat (Human immunodeficiency virus type 1 group M subtype B (isolate HXB2)(HIV-1), UniProt P04608); type: functional;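 also: tat binding to TAR RNA read out by fluorescence polarization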
# T4 sequence (P04608 whole entry): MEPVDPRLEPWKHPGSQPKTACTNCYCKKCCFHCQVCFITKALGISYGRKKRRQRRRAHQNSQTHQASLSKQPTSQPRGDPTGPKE
# Envelope glycoprotein gp160, sequence (Q6QLK5 whole entry, the tested form may be a part): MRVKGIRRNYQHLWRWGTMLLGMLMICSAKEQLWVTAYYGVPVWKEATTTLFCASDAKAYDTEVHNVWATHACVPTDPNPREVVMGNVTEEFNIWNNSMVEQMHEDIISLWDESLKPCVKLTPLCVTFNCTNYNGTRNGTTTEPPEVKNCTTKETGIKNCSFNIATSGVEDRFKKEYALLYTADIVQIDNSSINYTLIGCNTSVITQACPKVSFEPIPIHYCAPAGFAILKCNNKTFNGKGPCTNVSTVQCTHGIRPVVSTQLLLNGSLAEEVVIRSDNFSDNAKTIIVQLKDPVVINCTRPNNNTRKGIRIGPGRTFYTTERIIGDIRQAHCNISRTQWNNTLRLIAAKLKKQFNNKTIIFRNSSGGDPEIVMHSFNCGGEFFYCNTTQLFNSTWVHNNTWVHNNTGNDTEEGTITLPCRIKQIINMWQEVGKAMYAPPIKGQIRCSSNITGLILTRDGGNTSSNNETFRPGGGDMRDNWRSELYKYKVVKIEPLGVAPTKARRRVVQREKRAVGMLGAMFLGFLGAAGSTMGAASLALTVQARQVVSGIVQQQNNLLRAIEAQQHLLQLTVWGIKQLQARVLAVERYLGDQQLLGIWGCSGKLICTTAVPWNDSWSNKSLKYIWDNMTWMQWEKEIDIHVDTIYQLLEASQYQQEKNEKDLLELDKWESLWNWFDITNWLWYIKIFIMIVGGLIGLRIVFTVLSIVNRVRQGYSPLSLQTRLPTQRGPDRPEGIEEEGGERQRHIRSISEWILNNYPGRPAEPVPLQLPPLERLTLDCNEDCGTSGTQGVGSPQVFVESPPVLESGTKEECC
# DNA (cytosine-5)-methyltransferase 1, sequence (P26358 whole entry): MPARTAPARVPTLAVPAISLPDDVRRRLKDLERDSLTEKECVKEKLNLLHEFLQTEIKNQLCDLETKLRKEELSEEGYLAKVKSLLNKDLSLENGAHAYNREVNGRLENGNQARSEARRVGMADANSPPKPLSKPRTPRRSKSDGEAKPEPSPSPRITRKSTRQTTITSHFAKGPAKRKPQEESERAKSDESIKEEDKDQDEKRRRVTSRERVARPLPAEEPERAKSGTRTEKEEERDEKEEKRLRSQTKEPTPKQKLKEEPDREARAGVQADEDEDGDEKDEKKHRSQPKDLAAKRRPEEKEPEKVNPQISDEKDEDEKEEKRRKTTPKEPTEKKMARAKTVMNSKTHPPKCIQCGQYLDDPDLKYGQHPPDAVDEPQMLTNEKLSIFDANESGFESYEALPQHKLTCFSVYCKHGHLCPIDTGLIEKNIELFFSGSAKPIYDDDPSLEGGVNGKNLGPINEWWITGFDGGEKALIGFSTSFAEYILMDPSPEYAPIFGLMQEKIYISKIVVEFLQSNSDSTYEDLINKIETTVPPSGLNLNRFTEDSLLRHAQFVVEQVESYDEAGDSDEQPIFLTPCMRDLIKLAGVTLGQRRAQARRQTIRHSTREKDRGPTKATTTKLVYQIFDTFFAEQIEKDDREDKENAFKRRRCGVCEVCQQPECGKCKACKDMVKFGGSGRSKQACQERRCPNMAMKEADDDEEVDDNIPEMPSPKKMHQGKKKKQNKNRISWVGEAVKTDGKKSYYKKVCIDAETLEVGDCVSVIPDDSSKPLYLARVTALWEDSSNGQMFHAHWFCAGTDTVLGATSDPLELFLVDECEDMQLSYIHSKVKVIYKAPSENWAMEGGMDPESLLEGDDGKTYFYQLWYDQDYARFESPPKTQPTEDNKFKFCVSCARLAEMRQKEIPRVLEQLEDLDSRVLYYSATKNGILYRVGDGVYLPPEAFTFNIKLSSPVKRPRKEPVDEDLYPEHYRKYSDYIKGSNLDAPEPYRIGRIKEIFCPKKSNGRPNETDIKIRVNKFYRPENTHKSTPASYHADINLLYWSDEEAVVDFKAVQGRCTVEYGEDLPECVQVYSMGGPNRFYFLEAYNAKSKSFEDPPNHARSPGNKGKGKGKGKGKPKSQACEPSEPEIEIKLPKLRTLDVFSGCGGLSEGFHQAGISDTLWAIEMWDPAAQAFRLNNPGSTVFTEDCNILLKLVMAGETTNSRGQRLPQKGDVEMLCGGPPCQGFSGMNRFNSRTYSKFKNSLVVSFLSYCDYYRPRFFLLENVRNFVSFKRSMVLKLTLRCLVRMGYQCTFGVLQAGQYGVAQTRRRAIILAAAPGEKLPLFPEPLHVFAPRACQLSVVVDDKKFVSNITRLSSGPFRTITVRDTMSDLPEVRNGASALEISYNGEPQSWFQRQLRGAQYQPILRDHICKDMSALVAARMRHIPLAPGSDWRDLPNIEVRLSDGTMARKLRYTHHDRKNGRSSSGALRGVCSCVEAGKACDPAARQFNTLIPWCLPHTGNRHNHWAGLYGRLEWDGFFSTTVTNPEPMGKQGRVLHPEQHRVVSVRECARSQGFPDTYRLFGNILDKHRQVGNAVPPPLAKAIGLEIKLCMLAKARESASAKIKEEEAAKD
# Cytochrome P450 2C19, sequence (P33261 whole entry): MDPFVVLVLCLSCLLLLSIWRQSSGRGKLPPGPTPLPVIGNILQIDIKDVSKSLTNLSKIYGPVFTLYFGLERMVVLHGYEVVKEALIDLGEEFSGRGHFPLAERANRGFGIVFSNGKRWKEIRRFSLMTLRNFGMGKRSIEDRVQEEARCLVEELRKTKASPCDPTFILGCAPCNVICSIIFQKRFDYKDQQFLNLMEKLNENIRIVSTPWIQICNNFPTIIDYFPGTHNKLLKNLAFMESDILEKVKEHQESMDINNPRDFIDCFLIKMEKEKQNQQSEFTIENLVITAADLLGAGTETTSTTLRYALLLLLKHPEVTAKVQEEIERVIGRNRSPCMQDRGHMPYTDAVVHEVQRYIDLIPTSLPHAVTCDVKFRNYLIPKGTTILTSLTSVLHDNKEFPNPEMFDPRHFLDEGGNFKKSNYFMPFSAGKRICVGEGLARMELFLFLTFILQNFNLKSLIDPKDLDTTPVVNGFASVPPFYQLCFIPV
# Keap1/Nrf2, sequence (Q16236 whole entry): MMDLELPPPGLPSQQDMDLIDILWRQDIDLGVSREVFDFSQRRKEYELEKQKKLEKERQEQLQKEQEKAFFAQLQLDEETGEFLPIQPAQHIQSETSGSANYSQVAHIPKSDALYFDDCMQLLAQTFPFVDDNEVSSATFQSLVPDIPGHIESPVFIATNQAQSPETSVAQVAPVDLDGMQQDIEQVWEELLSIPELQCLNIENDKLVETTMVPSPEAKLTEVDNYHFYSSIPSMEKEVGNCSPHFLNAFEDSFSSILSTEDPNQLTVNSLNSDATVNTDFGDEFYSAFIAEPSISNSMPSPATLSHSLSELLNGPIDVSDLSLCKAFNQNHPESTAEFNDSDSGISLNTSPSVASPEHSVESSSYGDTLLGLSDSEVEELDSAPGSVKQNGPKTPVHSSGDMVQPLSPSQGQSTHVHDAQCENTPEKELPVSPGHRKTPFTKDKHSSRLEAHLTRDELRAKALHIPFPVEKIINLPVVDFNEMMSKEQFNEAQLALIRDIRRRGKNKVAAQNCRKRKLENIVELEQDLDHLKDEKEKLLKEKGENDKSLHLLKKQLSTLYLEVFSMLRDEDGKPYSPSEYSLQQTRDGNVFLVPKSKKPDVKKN
# Keap1/Nrf2, sequence (Q14145 whole entry): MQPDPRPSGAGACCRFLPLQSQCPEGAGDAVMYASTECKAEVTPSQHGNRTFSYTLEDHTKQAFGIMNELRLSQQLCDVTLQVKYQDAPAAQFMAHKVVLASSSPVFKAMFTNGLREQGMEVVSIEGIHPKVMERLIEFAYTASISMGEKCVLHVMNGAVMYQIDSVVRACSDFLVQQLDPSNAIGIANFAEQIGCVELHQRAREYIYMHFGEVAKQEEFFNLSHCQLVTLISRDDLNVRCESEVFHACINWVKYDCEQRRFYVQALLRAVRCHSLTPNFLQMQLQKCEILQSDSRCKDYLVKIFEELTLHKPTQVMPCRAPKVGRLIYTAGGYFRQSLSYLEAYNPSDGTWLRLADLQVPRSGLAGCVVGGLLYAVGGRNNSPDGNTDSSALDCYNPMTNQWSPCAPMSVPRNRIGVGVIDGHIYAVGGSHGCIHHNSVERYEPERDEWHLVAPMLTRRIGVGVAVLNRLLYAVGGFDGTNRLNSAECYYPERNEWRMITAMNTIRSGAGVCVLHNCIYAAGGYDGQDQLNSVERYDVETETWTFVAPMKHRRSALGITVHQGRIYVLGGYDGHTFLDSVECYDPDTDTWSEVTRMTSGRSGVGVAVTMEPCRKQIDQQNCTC
# Estrogen receptor beta, sequence (Q92731 whole entry): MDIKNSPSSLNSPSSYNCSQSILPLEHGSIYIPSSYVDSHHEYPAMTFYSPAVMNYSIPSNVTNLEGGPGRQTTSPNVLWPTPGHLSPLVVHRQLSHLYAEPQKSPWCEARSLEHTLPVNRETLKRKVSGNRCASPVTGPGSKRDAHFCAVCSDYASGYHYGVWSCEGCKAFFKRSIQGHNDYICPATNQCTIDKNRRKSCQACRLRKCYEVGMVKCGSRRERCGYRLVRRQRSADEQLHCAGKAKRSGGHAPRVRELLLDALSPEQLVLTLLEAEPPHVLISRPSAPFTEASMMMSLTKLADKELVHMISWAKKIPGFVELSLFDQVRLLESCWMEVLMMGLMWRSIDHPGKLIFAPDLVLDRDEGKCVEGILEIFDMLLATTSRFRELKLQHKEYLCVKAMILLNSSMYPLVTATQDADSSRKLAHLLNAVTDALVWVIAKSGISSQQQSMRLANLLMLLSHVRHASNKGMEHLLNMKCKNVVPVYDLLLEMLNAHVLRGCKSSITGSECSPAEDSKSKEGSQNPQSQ
compound,measurement,setting,value
CCN1/C(=C/c2ccc3cc(C)ccc3[n+]2CC)Sc2cc(C)c(C)cc21,EC50,BJ,2.34 µM (active)
same,AC50,[1],4.16 µM (active) and 2.67 µM (active)
Nc1ccc2nc3c(O)nc(S)nc3nc2c1,AC50,Keap1/Nrf2,3.55 µM (active)
COc1ccc(C(=O)Nc2nc3c(s2)Cc2cc(OC)ccc2-3)cc1,AC50,Cytochrome P450 2C19,5.01 µM (inconclusive)
same,IC50,Estrogen receptor beta,< 0.023 µM (not active)
Cc1oc2c(c1C(=O)c1ccccc1)C(=O)C(=O)c1ccccc1-2,CC50,Vero,6.37 µM (active)
CSc1ccc(C=NNc2ccc(S(=O)(=O)Nc3ccccc3C(=O)O)cc2[N+](=O)[O-])cc1,IC50,[2],3.26 µM (active)
same,IC50,[3],4.12 µM (active)
O=C(O)COc1ccc(/C=N/NC(=O)c2ccc(-c3csc(Nc4ccc(Cl)cc4)n3)cc2)cc1,IC50,[4],0.626 µM (active)
same,IC50,[5],1.24 µM (active)
same,IC50,[6],6.07 µM (active)
same,IC50,[7],27.3 µM (active)
same,IC50,[8],15 µM (active)
same,IC50,[9],0.249 µM (active)
COc1cc(NCCCNC(C)C)c2nccc(C)c2c1,IC50,Protein Tat,> 100 µM (active)
